In assay [1] the test system is HEL. Briefly: Compound was tested for anti-viral activity against HSV-1TK neg in HEL cells. The class given is functional, cell-based. Conditions: Homo sapiens.
Assay [2] concerns Human herpesvirus 2 (Herpes simplex virus type 2). Briefly: Compound was tested for anti-viral activity against HSV-2(G) in HEL cells.
Assay [3] deals with HEL. Briefly: Compound was tested for anti-viral activity against HSV-1(KOS) in HEL cells. The class given is functional, cell-based. Conditions: Homo sapiens.
For assay [4], the system named is HEL. Briefly: Compound concentration required to reduce viability of HEL cells. The class given is functional. Conditions: Homo sapiens.
For assay [5], the system named is CCRF-CEM. Briefly: Compound concentration required to reduce viability of CEM cells. The class given is functional. Particulars: Homo sapiens.
The subject of assay [6] is CCRF-CEM. Briefly: Compound was tested for anti-viral activity against HIV-1 in CEM cells. The class given is functional, cell-based. Conditions: Homo sapiens.
Assay [7] relates to CCRF-CEM. Briefly: Compound was tested for anti-viral activity against HIV-2 in CEM cells. The class given is functional, cell-based. Particulars: Homo sapiens.

Consider seven molecules from ChEMBL document CHEMBL1136483, “Synthesis and antiviral evaluation of 3-hydroxy-2-methylpyridin-4-one dideoxynucleoside derivatives” (Bioorg Med Chem Lett, 2003).

As usually defined, the EC50 is the concentration that produces a half-maximal response. By CC50 is commonly meant the concentration that lowers cell viability or growth by half. In the case of `Cc1c(O)c(=O)ccn1[C@H]1CC[C@@H](CO)O1`, the EC50 is 500 µM in assay [1]; above 900 µM in assay [2]; 40 µM in assay [3]; above 50 µM in assay [6]; above 50 µM in assay [7]. Further, the CC50 in assay [4] was above 900 µM; in assay [5], 101 µM.
As to `Cc1c(O)c(=O)ccn1[C@@H]1CC[C@@H](CO)O1`, the concentration for a half-maximal effect (EC50) in assay [1] was 500 µM; in assay [2], 500 µM; in assay [3] it was 177 µM; in assay [6], above 50 µM; in assay [7], above 50 µM. The cytotoxic concentration (CC50) in assay [4] is above 900 µM; in assay [5], above 50 µM.
As to `Cc1c(O)c(=O)ccn1[C@@H]1CS[C@@H](CO)O1` (racemic), the EC50 in assay [1] was 95 µM; in assay [2], 90 µM; in assay [3] it was 40 µM; in assay [6] it was above 80 µM; in assay [7], above 80 µM. Besides, the 50% cytotoxic concentration (CC50) was above 400 µM in assay [4] and 203 µM in assay [5].
Consider `Cc1c(O)c(=O)ccn1[C@H]1CS[C@@H](CO)O1` (racemic), for which the half-maximal effective concentration (EC50) in assay [1] was 80 µM; in assay [2] it was 81 µM; in assay [3], 32 µM; in assay [6], above 80 µM; in assay [7], above 80 µM. The CC50 in assay [4] was above 100 µM; in assay [5], 203 µM.
For `Nc1nc2c(ncn2COCCO)c(=O)[nH]1` [ACYCLOVIR], the half-maximal effective concentration (EC50) in assay [1] is 88 µM; in assay [3], 0.32 µM; in assay [6], above 200 µM; in assay [7], above 200 µM. Also, the half-maximal cytotoxic concentration (CC50) in assay [4] is above 1700 µM; in assay [5], above 200 µM.
Consider `Nc1ccn(C[C@@H](CO)OCP(=O)(O)O)c(=O)n1` [CIDOFOVIR], for which the EC50 in assay [3] was 0.57 µM; in assay [6], above 200 µM; in assay [7], above 200 µM. The CC50 is above 350 µM in assay [4] and above 200 µM in assay [5].
As for `Nc1nc2c(ncn2COC(CO)CO)c(=O)[nH]1` [GANCICLOVIR], the results for the EC50 in assay [2], in assay [6] and in assay [7] were 0.06 µM, above 200 µM and above 200 µM, respectively. Besides, the figures for the cytotoxic concentration (CC50) in assay [4] and in assay [5] were above 400 µM and above 200 µM, respectively.
